This assay deals with Wister rats. Nature of the assay: Confirmation of pharmacological activity: blood glucose level of rats after subcutaneous injection. Type of assay: in vivo, rat. The note with it: 1.6 U/kg, 15, 30, 60 and 120 minutes after injection. On the procedure: After anesthetic, Nembutal, was injected to Wister rats (male, 8 week-old, weight: about 250 g) fasted for one day, blood was taken from the tail vein. This is used as a base (control). […] The resultant liquid droplets were collected and subcutaneously injected into the rats in a dose of 1.6 U/kg. Blood was taken from the tail vein 15, 30, 60 and 120 minutes after the injection. The blood samples thus taken were centrifugally separated and the blood glucose levels of the obtained serums were analyzed (one group consisting of 6 rats). The same experiment was performed by using an insulin solution having no additives and not ejected in accordance with the thermal inkjet system as a Comparative Example.

In the case of “insulin: insulin solution having no additives and not ejected in accordance with the thermal inkjet system (Comparative Example of Example 25)”, the “effect in reducing blood glucose level” value is recorded as “swiftly decreased”.

For the origin of these results see patent US8833363B2, “Ejection liquid, ejection method, method for forming liquid droplets, liquid ejection cartridge and ejection apparatus” (Canon Kabushiki Kaisha, priority 2004, dated 2014).
